What all share (assay type): biochemical
One assay has as its target Pim3 kinase (Homo sapiens (Human), UniProt Q86V86). Nature of the assay: Pim3 ATP depletion assay. Particulars: 40 μM ATP, 100 μM BAD peptide. On the procedure:
(§1) The activity of PIM3 is measured using a luciferase-luciferin based ATP detection reagent to quantify ATP depletion resulting from kinase-catalyzed phosphoryl transfer to a peptide substrate. Compounds to be tested are dissolved in 100% DMSO and directly distributed into white 384-well plates at 0.5 piper well. […] After 15 minutes, 10 μl of 80 μM ATP in assay buffer is added. Final assay concentrations are 5 nM PIM1, 40 μM ATP, 100 μM BAD peptide and 2.5% DMSO. The reaction is performed until approximately 50% of the ATP is depleted, then stopped by the addition of 20 μl KinaseGlo Plus (Promega Corporation) solution. The stopped reaction is incubated for 10 minutes and the remaining ATP detected via luminescence on the Victor2 (Perkin Elmer).

Another assay deals with Pim2 kinase (Homo sapiens (Human), UniProt Q9P1W9). Nature of the assay: Pim2 ATP depletion assay. The settings on record: 4 μM ATP, 10 μM BAD peptide, 5 nM PIM2. Here is the method:
as §1, with “of PIM2” for “of PIM3”, “of 8” for “of 80”, “nM PIM2, 4” for “nM PIM1, 40”, “ATP, 10” for “ATP, 100”, “stopped with” for “stopped by”

Another assay concerns the target Pim1 kinase (Homo sapiens (Human), UniProt P11309). In words: Pim1 ATP depletion assay. The settings on record: 20 μM ATP, 40 μM BAD peptide, 2.5 nM PIM1. On the procedure: The activity of PIM1 is measured using a luciferase-luciferin based ATP detection reagent to quantify ATP depletion resulting from kinase-catalyzed phosphoryl transfer to a peptide substrate. Compounds to be tested are dissolved in 100% DMSO and directly distributed into white 384-well plates at 0.5 μl per well. […] After 15 minutes, 10 μl of 40 μM ATP in assay buffer is added. Final assay concentrations are 2.5 nM PIM1, 20 μM ATP, 40 μM BAD peptide and 2.5% DMSO. The reaction is performed until approximately 50% of the ATP is depleted, then stopped with the addition of 20 μl KinaseGlo Plus (Promega Corporation) solution. The stopped reaction is incubated for 10 minutes and the remaining ATP detected via luminescence on the Victor2 (Perkin Elmer).

SMILES strings stand for the structures.

Sequence of Pim1 kinase (P11309 whole entry): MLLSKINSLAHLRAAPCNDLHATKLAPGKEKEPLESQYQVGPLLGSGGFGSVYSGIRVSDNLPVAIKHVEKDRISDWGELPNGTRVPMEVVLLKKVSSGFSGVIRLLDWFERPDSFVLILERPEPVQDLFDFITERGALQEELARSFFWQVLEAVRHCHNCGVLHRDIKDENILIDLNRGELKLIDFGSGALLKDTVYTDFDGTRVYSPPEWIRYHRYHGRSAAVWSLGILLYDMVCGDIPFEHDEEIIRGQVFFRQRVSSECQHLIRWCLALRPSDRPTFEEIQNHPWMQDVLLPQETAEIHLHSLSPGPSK
Sequence of Pim2 kinase (Q9P1W9 whole entry): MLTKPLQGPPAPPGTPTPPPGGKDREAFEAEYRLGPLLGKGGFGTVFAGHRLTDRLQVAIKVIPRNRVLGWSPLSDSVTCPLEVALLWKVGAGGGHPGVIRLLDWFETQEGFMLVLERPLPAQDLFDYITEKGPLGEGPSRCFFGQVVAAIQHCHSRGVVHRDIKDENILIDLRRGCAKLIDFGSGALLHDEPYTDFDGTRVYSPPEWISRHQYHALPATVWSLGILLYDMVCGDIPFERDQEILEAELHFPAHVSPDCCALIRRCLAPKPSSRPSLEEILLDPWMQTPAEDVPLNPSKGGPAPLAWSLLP

What is called IC50 is the concentration needed to halve the response being measured. High values mean a need for much substance, low ones inhibition by little substance. With `C[C@H]1C[C@@H](c2ccncc2NC(=O)c2csc(-c3c(F)cccc3F)n2)C[C@@H](N)[C@H]1F` (racemic) [Example 58, N-(4-((+/−)-3-amino-4-fluoro-5-methylcyclohexyl)pyridin-3-yl)-2-(2,6-difluorophenyl)thiazole-4-carboxamide], the IC50 is 18 nM at Pim3 kinase and 47 nM against Pim2 kinase.

Take `COc1ccc(F)c(-c2nc(C(=O)Nc3cnccc3[C@@H]3C[C@H](C)C[C@H](N)C3)cs2)c1F` (stereo in doubt) [Example 52, 2-(2,6-Difluoro-3-methoxy-phenyl)-thiazole-4-carboxylic acid [4-(3-amino-5-methyl-cyclohexyl)-pyridin-3-yl]-amide]: the half-inhibitory concentration (IC50) is 2 nM at Pim3 kinase, 1 nM against Pim1 kinase and 4 nM on Pim2 kinase.

As for `CCOc1ccc(F)c(-c2nc(C(=O)Nc3cnccc3[C@@H]3C[C@H](C)C[C@H](N)C3)cs2)c1F` (stereo in doubt) [Example 54, 2-(3-Ethoxy-2,6-difluoro-phenyl)-thiazole-4-carboxylic acid [4-(3-amino-5-methyl-cyclohexyl)-pyridin-3-yl]-amide], the concentration for half-maximal inhibition (IC50) is 3 nM against Pim3 kinase, 1 nM against Pim1 kinase and 9 nM against Pim2 kinase.

Take `C[C@@H]1C[C@H](N)C[C@H](c2ccncc2NC(=O)c2csc(-c3c(F)ccc(F)c3F)n2)C1` (stereo in doubt) [Example 55, 2-(2,3,6-Trifluoro-phenyl)-thiazole-4-carboxylic acid [4-(3-amino-5-methyl-cyclohexyl)-pyridin-3-yl]-amide]: the IC50 at Pim3 kinase came to 5 nM; against Pim1 kinase, 3 nM; against Pim2 kinase, 15 nM.

With `C[C@@H]1C[C@H](N)C[C@H](c2ccncc2NC(=O)c2csc(-c3c(F)ccc(Cl)c3F)n2)C1` (stereo in doubt) [Example 56, 2-(3-Chloro-2,6-difluoro-phenyl)-thiazole-4-carboxylic acid [4-(3-amino-5-methyl-cyclohexyl)-pyridin-3-yl]-amide], the IC50 on Pim3 kinase worked out at 3 nM; at Pim1 kinase, 1 nM; at Pim2 kinase, 12 nM.

As for `C[C@@H]1C[C@H](N)C[C@H](c2ccncc2NC(=O)c2csc(-c3c(F)cc(O)cc3F)n2)C1` (stereo in doubt) [Example 57, 2-(2,6-Difluoro-4-hydroxy-phenyl)-thiazole-4-carboxylic acid [4-(3-amino-5-methyl-cyclohexyl)-pyridin-3-yl]-amide], the IC50 on Pim3 kinase was 2 nM; on Pim1 kinase it was 1 nM; at Pim2 kinase it was 4 nM.

As for `N[C@@H]1CN(c2ccncc2NC(=O)c2csc(-c3c(F)cccc3F)n2)CC[C@H]1F` [Example 3, N-(4-((3R,4R)-3-amino-4-fluoropiperidin-1-yl)pyridin-3-yl)-2-(2,6-difluorophenyl)thiazole-4-carboxamide], the IC50 against Pim3 kinase came to 5 nM; on Pim1 kinase, 2 nM; on Pim2 kinase, 23 nM.

On to `N[C@H]1C[C@@H](O)CN(c2ccncc2NC(=O)c2csc(-c3c(F)cccc3F)n2)C1` [Example 5, N-(4-((3S,5R)-3-amino-5-hydroxypiperidin-1-yl)pyridin-3-yl)-2-(2,6-difluorophenyl)thiazole-4-carboxamide], for which the IC50 at Pim3 kinase is 13 nM; against Pim1 kinase it was 15 nM; on Pim2 kinase, 77 nM.

On to `COC1CCN(c2ccncc2NC(=O)c2csc(-c3c(F)cccc3F)n2)CC1N` (centres unmarked) [Example 7, N-(4-(3-amino-4-methoxypiperidin-1-yl)pyridin-3-yl)-2-(2,6-difluorophenyl)thiazole-4-carboxamide], for which the IC50 on Pim3 kinase was found to be 18 nM; on Pim1 kinase, 5 nM; against Pim2 kinase, 243 nM.

With `N[C@H]1C[C@H](O)CN(c2ccncc2NC(=O)c2csc(-c3c(F)cccc3F)n2)C1` [Example 9, N-(4-((3S,5S)-3-amino-5-hyydroxypiperidin-1-yl)pyridin-3-yl)-2-(2,6-difluorophenyl)thiazole-4-carboxamide], the IC50 was determined as 91 nM against Pim3 kinase, 69 nM against Pim1 kinase and 1500 nM against Pim2 kinase.

Take `N[C@H]1C[C@H](OC(=O)c2ccccc2)CN(c2ccncc2NC(=O)c2csc(-c3c(F)cccc3F)n2)C1` [Example 10, (3S,5S)-5-amino-1-(3-(2-(2,6-difluorophenyl)thiazole-4-carboxamido)pyridin-4-yl)piperidin-3-yl benzoate]: the concentration for half-maximal inhibition (IC50) on Pim3 kinase was 322 nM; on Pim1 kinase, 2220 nM; against Pim2 kinase, 479 nM.

With `N[C@H]1CCCN(c2ccncc2NC(=O)c2csc(C3CCCCC3)n2)C1` [Example 12, (S)-N-(4-(3-aminopiperidin-1-yl)pyridin-3-yl)-2-cyclohexylthiazole-4-carboxamide], the IC50 turned out to be 45 nM against Pim3 kinase, 57 nM on Pim1 kinase and 208 nM on Pim2 kinase.

Regarding `NC1CC(CO)CN(c2ccncc2NC(=O)c2csc(-c3c(F)cccc3F)n2)C1` (centres unmarked) [Example 13, N-(4-(3-amino-5-(hydroxymethyl)piperidin-1-yl)pyridin-3-yl)-2-(2,6-difluorophenyl)thiazole-4-carboxamide], the IC50 against Pim3 kinase is 24 nM; at Pim1 kinase, 14 nM; against Pim2 kinase, 58 nM.

As for `N[C@H]1C[C@H](F)CN(c2ccncc2NC(=O)c2csc(-c3c(F)cccc3F)n2)C1` [Example 17, N-(4-((3S,5S)-3-amino-5-fluoropiperidin-1-yl)pyridin-3-yl)-2-(2,6-difluorophenyl)thiazole-4-carboxamide], the figures for the IC50 against Pim3 kinase, against Pim1 kinase and at Pim2 kinase were 8 nM, 4 nM and 70 nM, respectively.

For `NC1CN(c2ccncc2NC(=O)c2csc(-c3c(F)cccc3F)n2)CCC1Cl` (centres unmarked) [Example 18, N-(4-(3-amino-4-chloropiperidin-1-yl)pyridin-3-yl)-2-(2,6-difluorophenyl)thiazole-4-carboxamide], the results for the IC50 against Pim3 kinase, against Pim1 kinase and at Pim2 kinase were 12 nM, 5 nM and 54 nM, respectively.

`CC1CC(N)CN(c2ccncc2NC(=O)c2csc(C3CCCCC3)n2)C1` (centres unmarked) [Example 20, N-(4-(3-amino-5-methylpiperidin-1-yl)pyridin-3-yl)-2-cyclohexylthiazole-4-carboxamide]: the IC50 at Pim3 kinase came out at 16 nM; against Pim1 kinase, 12 nM; at Pim2 kinase, 18 nM.

`NC1CC(C(F)(F)F)CN(c2ccncc2NC(=O)c2csc(C3CCCCC3)n2)C1` (centres unmarked) [Example 21, N-(4-(3-amino-5-(trifluoromethyl)piperidin-1-yl)pyridin-3-yl)-2-cyclohexylthiazole-4-carboxamide]: the IC50 against Pim3 kinase was 20 nM; on Pim1 kinase, 11 nM; at Pim2 kinase, 21 nM.

With `CO[C@H]1C[C@H](N)CN(c2ccncc2NC(=O)c2csc(-c3c(F)cccc3F)n2)C1` [Example 22, N-(4-((3S,5S)-3-amino-5-methoxypiperidin-1-yl)pyridin-3-yl)-2-(2,6-difluorophenyl)thiazole-4-carboxamide], the IC50 against Pim3 kinase was 60 nM; on Pim1 kinase it was 129 nM; against Pim2 kinase, 378 nM.

As to `N[C@@H]1CN(c2ccncc2NC(=O)c2csc(-c3c(F)cccc3F)n2)CC(F)(F)C1` [Example 24, (S)-N-(4-(5-amino-3,3-difluoropiperidin-1-yl)pyridin-3-yl)-2-(2,6-difluoropheenyl)thiazole-4-carboxamide], the values for the IC50 against Pim3 kinase, on Pim1 kinase and against Pim2 kinase were 4 nM, 2 nM and 38 nM, respectively.

With `CC[C@@H]1C[C@H](N)CN(c2ccncc2NC(=O)c2csc(-c3c(F)cccc3F)n2)C1` [Example 25, N-(4-((3S,5R)-3-amino-5-ethylpiperidin-1-yl)pyridin-3-yl)-2-(2,6-difluorophenyl)thiazole-4-carboxamide], the IC50 at Pim3 kinase turned out to be 3 nM; against Pim1 kinase, 1 nM; at Pim2 kinase, 3 nM.

Regarding `N[C@@H]1C[C@@H](C(F)(F)F)CN(c2ccncc2NC(=O)c2csc(-c3c(F)cccc3F)n2)C1` [Example 26, N-(4-((3R,5R)-3-amino-5-(trifluoromethyl)piperidin-1-yl)pyridin-3-yl)-2-(2,6-difluorophenyl)thiazole-4-carboxamide], the values for the IC50 against Pim3 kinase, against Pim1 kinase and against Pim2 kinase were 24 nM, 6 nM and 72 nM, respectively.

For the origin of these results see patent US8829193B2, “PIM kinase inhibitors and methods of their use” (Novartis AG, priority 2008, dated 2014).
